In US20130150346A1, “Use of FAAH Inhibitors for Treating Parkinson's Disease and Restless Legs Syndrome” (Ironwood Pharmaceutical, Inc., priority 2010, published 2013):

Assays:
MPTP-lesioned marmosets = test: Motor activity (passive infra-red sensors: total activity, high activity counts and time) in MPTP-lesioned marmosets; format: in vivo, common marmosets (Callithrix jacchus)
Experimental: Six common marmosets (Callithrix jacchus; female; weight, 350-500 g (Harlan, Madison, Wis., USA)) were kept under conditions of controlled temperature (25±2° C.) and a 12-hour light/dark cycle (lights on 6:30 a.m.). Animals were group housed and had access to food, fresh-fruit supplements and water ad libitum and their home cage environment was enriched with primate toys, perches and auditory stimuli. Prior to start of studies, animals were acclimatized to handling, blood collection and administration of treatments (oral syringe feeding and subcutaneous injection) as well as transfer to observation cages for assessment of behavior. A parkinsonian syndrome was induced by once-daily subcutaneous administration of MPTP hydrochloride (Sigma, Canada; 2 mg/kg base concentration in 0.9% saline) for 5 consecutive days. Following this, animals were allowed to recover for 12 weeks to allow parkinsonian symptoms to develop and stabilize. […] Treatment-related complications including dyskinesia and psychosis-like behaviors were evoked by twice-daily treatment with L-DOPA p.o. (as Prolopa®, Roche Canada, Ontario, equivalent to 15 mg/kg L-DOPA and 3.5 mg/kg benserazide) for a minimum of 30 days. […] Disord. 21:839-846; Visanji et al. (2008) Mov. Disord. 23:1922-1925; Visanji et al (2009) Neurobiol Dis. 35: 184-192]. After this time, the animals were used in several studies to evaluate potential anti-parkinsonian and anti-dyskinetic agents. A minimum period of two weeks was allowed between completing any prior study and commencing this study, a period in excess of ten half-lives since administration of any previously employed experimental drug. Throughout the course of the study, on days not requiring plasma sampling or behavioral observations, animals were treated once daily with oral L-DOPA therapy, given at 10:00 a.m. to maintain stable levels of complications. Marmosets treated with MPTP as described in this example are referred to as MPTP-lesioned marmosets.
To assess the effect of treatment on plasma FAAH substrate level, total activity, high activity time and count, data were analyzed using a parametric repeated-measures (RM) 1-way analysis of variance (ANOVA) followed by a Student Newman-Keuls Multiple Comparison post hoc test. To assess the effect of treatment on plasma L-DOPA level a paired, two-tailed t-test was used. All FAAH (AEA, OEA, PEA) subbstrate and L-DOPA plasma level data and activity data are presented as the group mean and SEM For measures of parkinsonian disability, dyskinesia and psychosis, data were analyzed via Friedman's test with Dunn's Multiple Comparison post hoc test. […] In all cases, p<0.05 was taken to represent a significant difference.
MPTP hydrochloride (Sigma, Canada) was dissolved in 0.9% NaCl sterile solution to a concentration of 0.2 mg/ml (freebase) and administered at 1 ml/kg. Maintenance L-DOPA, administered as Prolopa® capsules (Roche, Mississauga, ON, Canada) containing 50 mg L-DOPA and 12.5 mg benserazide (freebase) was dissolved in Gatorade sports beverage (The Gatorade Company, Chicago, Ill.) prior to oral administration by syringe at a volume of 10 ml/kg. On days of behavioral assessment, L-DOPA (20 mg/kg, freebase) was prepared from the methyl ester form (Sigma, Canada) in combination with benserazide hydrochloride (5 mg/kg, freebase, Sigma, Canada) dissolved in 0.9% sterile saline containing 0.1% ascorbate (Sigma, Canada) and 0.05% absolute ethanol. URB597 (Cayman Chemical, Ann Arbor, Mich.) was formulated in a vehicle containing 50% corn oil (Professional Compounding Centers of America (PCCA), Houston, Tex.) and 50% nutritional drink Ensure™ (Abbott Nutrition, Chicago, Ill.) to make the suspension palatable for marmoset oral dosing. Requisite amounts of URB597 were weighed into sterile 50 ml polypropylene tubes (for the 3, 10, 30 and 60 mg/kg doses, 12, 40, 120 and 240 mg were weighed respectively). Then, 10 ml Corn oil was added and mixed until homogenous.

MPTP-lesioned macaques = test: Motor activity (total activity, high activity time and counts) in MPTP-lesioned macaques treated with URB597 and L-DOPA; format: in vivo, cynomolgus monkeys (Macaca fascicularis)
[1] = Plasma L-DOPA levels by LC-MS/MS in MPTP-lesioned marmosets; format: in vivo, common marmosets (Callithrix jacchus); conditions: URB597 10 mg/kg p.o., 2 h post L-DOPA, 4 h post URB597, p>0.05, paired t-test
Experimental: Six common marmosets (Callithrix jacchus; female; weight, 350-500 g (Harlan, Madison, Wis., USA)) were kept under conditions of controlled temperature (25±2° C.) and a 12-hour light/dark cycle (lights on 6:30 a.m.). Animals were group housed and had access to food, fresh-fruit supplements and water ad libitum and their home cage environment was enriched with primate toys, perches and auditory stimuli. Prior to start of studies, animals were acclimatized to handling, blood collection and administration of treatments (oral syringe feeding and subcutaneous injection) as well as transfer to observation cages for assessment of behavior. A parkinsonian syndrome was induced by once-daily subcutaneous administration of MPTP hydrochloride (Sigma, Canada; 2 mg/kg base concentration in 0.9% saline) for 5 consecutive days. Following this, animals were allowed to recover for 12 weeks to allow parkinsonian symptoms to develop and stabilize. […] Treatment-related complications including dyskinesia and psychosis-like behaviors were evoked by twice-daily treatment with L-DOPA p.o. (as Prolopa®, Roche Canada, Ontario, equivalent to 15 mg/kg L-DOPA and 3.5 mg/kg benserazide) for a minimum of 30 days. […]
The effect of oral treatment with either vehicle or URB597 (10 mg/kg) on plasma levels of L-DOPA was assessed at the beginning of the period of peak L-DOPA effect, i.e., 2 h after L-DOPA administration. […]

[2] = URB597 10 mg/kg p.o. + L-DOPA 20 mg/kg s.c., 2-4 h, p<0.05
[3] = URB597 10 mg/kg p.o. + L-DOPA 20 mg/kg s.c., 2-4 h, p>0.05

NC(=O)c1cccc(-c2cccc(OC(=O)NC3CCCCC3)c2)c1 [URB597]
reduction of L-DOPA-induced total activity compared to L-DOPA alone (MPTP-lesioned marmosets; [2]): 32% | reduction of high activity counts evoked by L-DOPA (MPTP-lesioned marmosets; [2]): 52% | reduction of high activity time evoked by L-DOPA (MPTP-lesioned marmosets; [2]): 48% | high activity counts and high activity time compared to normal, unlesioned animals (MPTP-lesioned marmosets; [3]): not significantly different | total activity relative to normal, un-lesioned animals (MPTP-lesioned marmosets; [3]): 119 % of normal | time after which total activity counts were no longer significantly different compared to vehicle (s.c.)-treated animals (MPTP-lesioned marmosets; URB597 10 mg/kg p.o. + L-DOPA 20 mg/kg s.c., 6 h time course): 2.5 h | effect on total activity and high activity cf. vehicle (MPTP-lesioned marmosets; URB597 10 mg/kg p.o. given alone (vehicle s.c.), p>0.05): did not modify | total activity counts (MPTP-lesioned marmosets; URB597 10 mg/kg p.o. in combination with L-DOPA 20 mg/kg s.c., 2-4 h, mean±SEM, n=6): 1879±332 counts | total activity counts, high activity time and high activity counts compared to normal macaques (MPTP-lesioned macaques; L-DOPA/URB597 (0.1 ml/kg as printed, i.v.), between 2 and 3 h after L-DOPA): significantly higher | total activity and high activity count compared to L-DOPA alone treatment (MPTP-lesioned macaques; URB597 0.3 mg/ml (so in the source) i.v. + L-DOPA p.o., 2-3 h post L-DOPA, p<0.05): significantly lower | effect of URB597 on plasma L-DOPA levels [1]: did not alter
